As a reminder, the IC50 is the concentration at which inhibition is half-maximal. By EC50 is commonly meant the concentration at which the effect is half-maximal. A word on the Emax: it is the size of the effect at its maximum, as opposed to the concentration needed.

We go through two compounds from patent US12343319B2, “Compositions and methods for treatment of diseases and disorders” (Atai Therapeutics Inc., priority 2023, dated 2025).

Experiment [1] concerns the target T1, 5-HT2A (Homo sapiens, UniProt P28223). As to the kind of experiment: Radioligand binding, 5-HT2A. The arrangement: expressed in transfected cells. The conditions noted are these: for Max % inhibition: radioligand binding, human 5-HT2A.
Experiment [2] concerns the target T2, 5-HT1F (Homo sapiens, UniProt P30939).
T2 construct: expressed in transfected cells
T2 sequence (P30939 1-366): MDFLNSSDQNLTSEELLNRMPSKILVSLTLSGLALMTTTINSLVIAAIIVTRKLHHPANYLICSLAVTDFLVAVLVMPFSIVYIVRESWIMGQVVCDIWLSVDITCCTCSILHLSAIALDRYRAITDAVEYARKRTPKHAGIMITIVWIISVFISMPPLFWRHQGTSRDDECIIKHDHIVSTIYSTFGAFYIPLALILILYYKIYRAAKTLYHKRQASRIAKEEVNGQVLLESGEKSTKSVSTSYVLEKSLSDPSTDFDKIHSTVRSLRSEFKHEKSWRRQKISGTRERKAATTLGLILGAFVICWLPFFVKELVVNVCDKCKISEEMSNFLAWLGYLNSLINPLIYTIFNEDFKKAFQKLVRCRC
As to the kind of experiment: cAMP, 5-HT1F. It is filed as cell-based. As to the method: (§1) In vitro pharmacology studies were performed to evaluate the effects of compound 2-1 on functional activity of several 5-HT receptors using recombinant target overexpression cell culture systems. The effect of compound 2-1 on G protein-dependent signaling was investigated at 5-HT2A, 5-HT2B, and 5-HT2C receptors with calcium mobilization and IPOne assays; and at 5-HT1A, 5-HT1B, 5-HT1F, 5-HT5A, and 5-HT7D receptors with a cAMP assay. G protein-independent signaling was investigated at the 5-HT2A receptor with a β-Arrestin assay.
(§2) In vitro pharmacology studies were performed to evaluate the effects of compound 2-2 on functional activity at several 5-HT receptors using recombinant target overexpression cell culture systems. The effect of compound 2-2 on G protein-dependent signaling was investigated at 5-HT2A, 5-HT2B, and 5-HT2C receptors with calcium mobilization and IPOne assays; and at 5-HT1A, 5-HT1B, 5-HT1F, 5-HT5A, and 5-HT7D receptors with a cAMP assay. G protein-independent signaling was investigated at the 5-HT2A receptor with a β-arrestin assay. […] In Table 4, 5-HT receptor selectivity was calculated using ΔΔlog(Emax/EC50). Assay reference α-Me-5-HT or 5-HT was used for normalization at each receptor (5-HT2A/5-HT2B selectivity=1; 5-HT2A/5-HT2C selectivity=1). ND in Table 4 indicates, not determined, plateau was not reached within the concentration range tested to determine Emax.

For experiment [3], the target named is 5-HT2A (mouse) (Mus musculus, UniProt P35363). As to the kind of experiment: β-Arrestin, mouse 5-HT2A. The format is cell-based. Particulars: for Emax: β-Arrestin, mouse 5-HT2A, read-out: Emax (%5-HT). The source says:
Overall, in vitro activity at rodent 5-HT2A and 5-HT2B receptors is consistent with the human receptor results, with compound 2-1 acting as a potent and selective 5-HT2A agonist.
Overall, in vitro activity at rodent 5-HT2A and […] receptors is consistent with the human receptor results, with compound 2-2 acting as a potent and selective 5-HT2A agonist. In Table 5, ND indicates not determined.

The test system of experiment [4] is 5-HT2A. In words: IPOne, 5-HT2A. The format is cell-based, human. The conditions noted are these: IPOne, human; calculated using ΔΔlog(Emax/EC50), reference = 1. As to the method: as §1, §2
Experiment [5] deals with T3, 5-HT1B (Homo sapiens, UniProt P28222).
T3 construct: expressed in transfected cells
As to the kind of experiment: cAMP, 5-HT1B. It is filed as cell-based. As to the method: as §1, §2

The target in experiment [6] is T1, 5-HT2A. As to the kind of experiment: β-Arrestin, 5-HT2A. The format is cell-based. Details: expressed in transfected cells. Particulars: for Emax: read-out: Emax (%5-HT). As to the method:
as §1, §2

Experiment [7] addresses T4, 5-HT2C (Homo sapiens, UniProt P28335).
T4 construct: expressed in transfected cells
T4 sequence (P28335 33-458): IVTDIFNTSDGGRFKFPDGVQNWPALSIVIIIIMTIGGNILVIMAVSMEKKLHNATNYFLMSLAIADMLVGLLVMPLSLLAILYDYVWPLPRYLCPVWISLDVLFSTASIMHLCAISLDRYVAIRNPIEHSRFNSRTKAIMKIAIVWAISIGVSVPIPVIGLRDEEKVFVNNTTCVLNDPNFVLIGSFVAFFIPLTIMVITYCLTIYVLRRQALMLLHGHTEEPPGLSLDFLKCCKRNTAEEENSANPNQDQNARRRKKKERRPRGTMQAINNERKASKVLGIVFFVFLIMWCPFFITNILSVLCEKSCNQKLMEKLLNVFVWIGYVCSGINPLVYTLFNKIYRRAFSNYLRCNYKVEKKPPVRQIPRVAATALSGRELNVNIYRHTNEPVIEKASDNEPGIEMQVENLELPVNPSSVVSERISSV
In words: Ca++ (calcium mobilization), 5-HT2C. It is filed as cell-based. The conditions noted are these: for Emax: Ca++, human 5-HT2C, read-out: Emax (%5-HT). The protocol:
as §1, §2

T1 sequence (P28223 whole entry): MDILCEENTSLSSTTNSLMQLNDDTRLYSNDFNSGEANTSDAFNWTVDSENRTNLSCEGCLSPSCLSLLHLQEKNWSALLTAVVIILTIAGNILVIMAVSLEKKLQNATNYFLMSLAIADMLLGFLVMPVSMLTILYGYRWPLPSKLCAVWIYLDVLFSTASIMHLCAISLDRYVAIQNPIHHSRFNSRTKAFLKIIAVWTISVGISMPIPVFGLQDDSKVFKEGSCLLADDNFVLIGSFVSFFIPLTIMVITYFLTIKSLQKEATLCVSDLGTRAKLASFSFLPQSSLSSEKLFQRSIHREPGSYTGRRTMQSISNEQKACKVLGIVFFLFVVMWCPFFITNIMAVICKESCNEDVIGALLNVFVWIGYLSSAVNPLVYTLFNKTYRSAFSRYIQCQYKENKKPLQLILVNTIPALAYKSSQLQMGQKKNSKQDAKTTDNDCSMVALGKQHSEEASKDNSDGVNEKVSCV
Chain of 5-HT2A (mouse) (P35363 whole entry): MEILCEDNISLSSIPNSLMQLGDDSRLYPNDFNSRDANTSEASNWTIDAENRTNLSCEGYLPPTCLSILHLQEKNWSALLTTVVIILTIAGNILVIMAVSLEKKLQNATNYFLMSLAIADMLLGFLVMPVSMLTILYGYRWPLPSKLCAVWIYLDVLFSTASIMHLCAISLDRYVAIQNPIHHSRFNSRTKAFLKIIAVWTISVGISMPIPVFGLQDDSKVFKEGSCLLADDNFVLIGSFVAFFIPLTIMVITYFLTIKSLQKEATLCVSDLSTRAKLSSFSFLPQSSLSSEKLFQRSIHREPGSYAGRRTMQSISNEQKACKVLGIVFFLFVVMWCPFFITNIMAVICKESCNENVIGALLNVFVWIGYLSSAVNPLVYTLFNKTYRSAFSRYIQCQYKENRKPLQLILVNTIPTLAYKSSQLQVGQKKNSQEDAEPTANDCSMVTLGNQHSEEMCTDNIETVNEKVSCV
T3 sequence (P28222 whole entry): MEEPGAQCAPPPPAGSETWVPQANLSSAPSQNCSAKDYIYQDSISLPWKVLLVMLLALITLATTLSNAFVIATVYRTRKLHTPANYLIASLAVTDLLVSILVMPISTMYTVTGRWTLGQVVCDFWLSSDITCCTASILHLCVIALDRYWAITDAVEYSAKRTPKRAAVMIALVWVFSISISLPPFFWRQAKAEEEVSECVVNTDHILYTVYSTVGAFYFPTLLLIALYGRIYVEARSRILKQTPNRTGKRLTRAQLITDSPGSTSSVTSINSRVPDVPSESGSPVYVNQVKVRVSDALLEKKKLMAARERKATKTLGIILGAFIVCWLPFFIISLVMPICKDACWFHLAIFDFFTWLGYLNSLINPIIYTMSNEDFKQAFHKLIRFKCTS

Turning to `COc1ccc(OC)c(CCNCc2cc(C)cc(F)c2)c1` [Compound 2-2, 2-(2,5-dimethoxyphenyl)-N-(3-fluoro-5-methylbenzyl)ethan-1-amine], in experiment [1], the IC50 is 105 nM. For the same compound, the Max % inhibition in experiment [1] worked out at 99%. Also, the EC50 is above 25000 nM in experiment [2]; 21.8 nM in experiment [3]; above 100000 nM in experiment [5]; 25.8 nM in experiment [6]; 73.5 nM in experiment [7]. The results for the Emax in experiment [3], in experiment [6] and in experiment [7] were 60.2%, 82.1% and 88.2%, respectively. For the same compound, the “5-HT2A/5-HT2B Selectivity” value in experiment [4] is given as 177.
In the case of `COc1ccc(OC)c(CCNCc2cc(C)cc(Cl)c2)c1` [Compound 2-1, N-(3-chloro-5-methylbenzyl)-2-(2,5-dimethoxyphenyl)ethan-1-amine], the concentration for half-maximal inhibition (IC50) in experiment [1] was 42.4 nM. In experiment [1], this compound came in with a Max % inhibition of 96.93%. For the same compound, the EC50 in experiment [2] was above 9000 nM; in experiment [3], 4.37 nM; in experiment [5], above 100000 nM; in experiment [6], 17.2 nM; in experiment [7], 42.2 nM. Besides, the Emax in experiment [3] stood at 65%; in experiment [6] it was 89.3%; in experiment [7], 82%. Also, the “5-HT2A/5-HT2B Selectivity” value in experiment [4] was 160.
